Assay results as given in patent US20160324875A1, “CUTANEOUS COMPOSITION COMPRISING VITAMIN D ANALOGUE AND A MIXTURE OF SOLVENT AND SURFACTANTS” (LEO PHARMA A/S, priority 2009, published 2016).
Entries after “also recorded” stand apart in the source; their conditions may differ.

Tests used:
IL-la = assay: release of IL-1a from calcipotriol ointment containing glycerol; settings: 5%, 10%, 15% by weight of glycerol in a calcipotriol ointment
[1] = tested on: gene encoding cathelicidin; assay: induction of the gene encoding cathelicidin in reconstructed human epidermis (qPCR); assay type: cell-based; settings: glycerol 5% vs 10% or 15% by weight in calcipotriol composition
Text: In psoriasis, the level of cathelicidin is increased in lesional skin of psoriasis patients. […] This finding has been utilized to develop an assay in which the uptake and biological activity of calcipotriol in human keratinocytes from the tested compositions has been determined by measuring the level of induction of the gene encoding cathelicidin.
In the assay, composition 1A prepared as described in Example 1 above was applied topically in triplicate on reconstructed human epidermis consisting of normal human keratinocytes cultured for 12 days on 0.5 cm^2 polycarbonate filters (available from SkinEthic® Laboratories, Nice, France) in an amount of […]. The tissue was treated for two days followed by separation of the epidermis from the polycarbonate filter and snap-frozen in liquid nitrogen. RNA was extracted from the cells and cDNA synthesized by conventional procedures. Quantitative real-time PCR (qPCR) was then performed using the following assays from Applied Biosystems: CAMP Hs0018038_ml and GAPDH Hs99999905_ml. The expression levels of cathelicidin were normalized to GAPDH and a relative quantification was made by comparison with Daivonex® ointment.

[2] = skin diffusion experiment (Franz diffusion cells); assay type: in vitro ADME, pig; settings: from a composition of the invention, 4 mg/cm^2, 21 hours, FIG. 3, % of applied dose
Description: To investigate the skin penetration and permeation of calcipotriol from compositions of the invention, a skin diffusion experiment was conducted. Full thickness skin from pig ears was used in the study. The ears were kept frozen at -18° C. before use. On the day prior to the experiment the ears were placed in a refrigerator (5±3° C.) for slow defrosting. On the day of the experiment, the hairs were removed using a veterinary hair trimmer. The skin was cleaned for subcutaneous fat using a scalpel and two pieces of skin were cut from each ear and mounted on Franz diffusion cells in a balanced order.
Static Franz-type diffusion cells with an available diffusion area of 3.14 cm^2 and receptor volumes ranging from 8.6 to 11.1 ml were used in substantially the manner described by T. J. Franz, “The finite dose technique as a valid in vitro model for the study of percutaneous absorption in man”, in Current Problems in Dermatology, 1978, J. W. H. Mall (Ed.), Karger, Basel, pp. 58-68. The specific volume was measured and registered for each cell. A magnetic bar was placed in the receptor compartment of each cell. […]
The in vitro skin permeation of each test composition was tested in 6 replicates (i.e. n=6). […] A glass spatula was used for the application, and the residual amount of the composition was determined so as to give the amount of the composition actually applied on the skin. […]

[3] = one study, Hannuksela et al. 1975; cited from earlier work

OCC(O)CO [glycerol]
release of IL-la (IL-la): reduce the release of IL-la in a dose-dependent manner | expression of cathelicidin [1]: increased with a low amount of glycerol

C=C1/C(=C\C=C2/CCC[C@]3(C)[C@@H]([C@H](C)/C=C/[C@@H](O)C4CC4)CC[C@@H]23)C[C@@H](O)C[C@@H]1O [calcipotriol, Calcipotriol]
calcipotriol penetrated into viable layers of the skin (dermis and epidermis) [2]: a significant amount | calcipotriol permeated through the skin into the receptor fluid [2]: Very little; also recorded: only a minor amount

CC(O)CO (centres unmarked) [propylene glycol]
number of irritant reactions [3]: 12.5%
